Data published in patent US10098350B2, “Fungicidal amides” (E. I. DU PONT DE NEMOURS AND COMPANY, priority 2013, dated 2018).

What was measured:
Format in all cases: in vivo
Botrytis cinerea = test: Test A: tomato seedlings sprayed with test suspension, inoculated with Botrytis cinerea (gray mold), visual disease rating
Excerpt: General protocol for preparing test suspensions for Tests A-E: the test compounds were first dissolved in acetone in an amount equal to 3% of the final volume and then suspended at the desired concentration (in ppm) in acetone and purified water (50/50 mix by volume) containing 250 ppm of the surfactant Trem® 014 (polyhydric alcohol esters). The resulting test suspensions were then used in Tests A-E. Samples were applied to plants at either a 10 ppm (**), 40 ppm, 50 ppm (*) or 200 ppm (#) test solution to the point of run-off on the test plants with the equivalent of a rate of 40 g ai/ha, 160 g ai/ha, 200 g ai/ha, or 800 g ai/ha, respectively.
The test suspension was sprayed to the point of run-off on tomato seedlings. The following day the seedlings were inoculated with a spore suspension of Botrytis cinerea (the causal agent of gray mold on many crops) and incubated in a saturated atmosphere at 20° C. for 48 h, and moved to a growth chamber at 27° C. for 2 days, after which time visual disease ratings were made.
Results for Tests A-E are given in Table A. In the Table, a rating of 100 indicates 100% disease control and a rating of 0 indicates no disease control (relative to the controls). A dash (-) indicates no test results.

[1] = tested on: Stagonospora nodorum (also known as Septoria nodorum); test: Test B: wheat seedlings sprayed with test suspension, inoculated with Stagonospora nodorum (wheat glume blotch), visual disease rating
Summary of the method: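 Compounds in acetone/water 50/50 with 250 ppm Trem 014 were sprayed to run-off on wheat seedlings at 10, 40, 50 or 200 ppm (40–800 g ai/ha). Plants were inoculated next day, held 48 h saturated at 20 °C, then 6 days in a growth chamber at 20 °C. Visual rating 0–100% disease control relative to controls.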

Septoria tritici = test: Test C: wheat seedlings sprayed with test suspension, inoculated with Septoria tritici (wheat leaf blotch), visual disease rating
Summary of the method: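 Wheat seedlings sprayed to run-off with compound suspended in acetone/water with 250 ppm Trem 014, at 10, 40, 50 or 200 ppm (40–800 g ai/ha). Inoculated with Septoria tritici spores the next day, held 48 h saturated at 24 °C, then 21 days at 20 °C. Visual rating 0–100% disease control relative to controls.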

[2] = tested on: Puccinia recondite f. sp. tritici; test: Test D: wheat seedlings sprayed with test suspension, inoculated with Puccinia recondite f. sp. tritici (wheat leaf rust), visual disease rating
Summary of the method: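 Wheat seedlings were sprayed to run-off with compound suspended in 50/50 acetone–water containing 250 ppm Trem 014, at 10-200 ppm (40-800 g ai/ha). They were inoculated with rust spores the next day, then kept 24 h saturated at 20 °C and 6 days at 20 °C. Scores are visual % disease control versus untreated controls.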

[3] = tested on: Erysiphe graminis f. sp. tritici; test: Test E: wheat seedlings sprayed with test suspension, inoculated with Erysiphe graminis f. sp. tritici (wheat powdery mildew), visual disease rating
Summary of the method: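 Wheat seedlings sprayed to run-off with compound suspension (acetone 3%, acetone/water 50/50 with 250 ppm Trem 014) at 10, 40, 50 or 200 ppm (40–800 g ai/ha), inoculated next day with spore dust. Incubated 7 or 8 days at 20° C, then rated visually as % disease control relative to controls (0–100).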

[4] = Cmpd. No. marked '#' (other test rate; meaning of mark not shown)
[5] = Cmpd. No. unmarked, 100 = 100% disease control, 0 = no control relative to controls

Cn1cc(C(=O)N(Cc2ccc(-n3ccc(Cl)n3)cn2)C2CC2)c(C(F)F)n1 [compound 5]
Test A rating (% disease control) (Botrytis cinerea; [4]): 0%
Test A rating (% disease control) (Botrytis cinerea; [5]): 0%
Test B rating (% disease control) [1, 4]: 0%
Test B rating (% disease control) [1, 5]: 0%
Test C rating (% disease control) (Septoria tritici; [4]): 80%
Test C rating (% disease control) (Septoria tritici; [5]): 17%
Test D rating (% disease control) [2, 4]: 28%
Test D rating (% disease control) [2, 5]: 0%
Test E rating (% disease control) [3, 4]: 0%
Test E rating (% disease control) [3, 5]: 0%

CC(c1ncc(-n2ccc(C(F)(F)F)n2)cc1Cl)N(C(=O)c1cn(C)nc1C(F)F)C1CC1 (stereo not drawn) [compound 17]
Test A rating (% disease control) (Botrytis cinerea; [5]): 0%
Test B rating (% disease control) [1, 5]: 100%
Test C rating (% disease control) (Septoria tritici; [5]): 99%
Test D rating (% disease control) [2, 5]: 23%
Test E rating (% disease control) [3, 5]: 92%

Cc1ccc(CN(C(=O)c2cn(C)nc2C(F)F)C2CC2)cc1-n1ccc(C(F)(F)F)n1 [compound 27]
Test A rating (% disease control) (Botrytis cinerea; [5]): 0%
Test B rating (% disease control) [1, 5]: 92%
Test C rating (% disease control) (Septoria tritici; [5]): 38%
Test D rating (% disease control) [2, 5]: 31%
Test E rating (% disease control) [3, 5]: 21%

Cn1nc(C(F)F)c(C(=O)N(Cc2ccc(-n3cc(Br)cn3)cc2Cl)C2CC2)c1Cl [compound 31]
Test A rating (% disease control) (Botrytis cinerea; [5]): 0%
Test B rating (% disease control) [1, 5]: 0%
Test C rating (% disease control) (Septoria tritici; [5]): 42%
Test D rating (% disease control) [2, 5]: 98%
Test E rating (% disease control) [3, 5]: 0%

Cn1nc(C(F)F)c(C(=O)N(Cc2ccc(-n3ccc(C(F)(F)F)n3)cc2Cl)C2CC2)c1F [Compound 12, N-[[2-chloro-4-[3-(trifluoromethyl)-1H-pyrazol-1-yl]phenyl]methyl]-N-cyclopropyl-3-(difluoromethyl)-5-fluoro-1-methyl-1H-pyrazole-4-carboxamide]
Test A rating (% disease control) (Botrytis cinerea; [5]): 0%
Test B rating (% disease control) [1, 5]: 100%
Test C rating (% disease control) (Septoria tritici; [5]): 100%
Test D rating (% disease control) [2, 5]: 99%
Test E rating (% disease control) [3, 5]: 97%

Cc1ccc(-n2ccc(C(F)(F)F)n2)cc1CN(C(=O)c1cn(C)nc1C(F)F)C1CC1 [compound 28]
Test A rating (% disease control) (Botrytis cinerea; [5]): 11%
Test B rating (% disease control) [1, 5]: 99%
Test C rating (% disease control) (Septoria tritici; [5]): 45%
Test D rating (% disease control) [2, 5]: 45%
Test E rating (% disease control) [3, 5]: 59%

Cn1nc(C(F)F)c(C(=O)N(Cc2cccc(-n3ccc(C(F)(F)F)n3)c2)C2CC2)c1F [Compound 3, N-cyclopropyl-3-(difluoromethyl)-5-fluoro-1-methyl-N-[[3-[3-(trifluoromethyl)-1H-pyrazol-1-yl]phenyl]methyl]-1H-pyrazole-4-carboxamide]
Test A rating (% disease control) (Botrytis cinerea; [5]): 0%
Test B rating (% disease control) [1, 5]: 100%
Test C rating (% disease control) (Septoria tritici; [5]): 100%
Test D rating (% disease control) [2, 5]: 99%
Test E rating (% disease control) [3, 5]: 99%

Cn1cc(C(=O)N(Cc2cccc(-n3ccc(C(F)(F)F)n3)c2)C2CC2)c(C(F)(F)F)n1 [Compound 149]
Test A rating (% disease control) (Botrytis cinerea; [5]): 0%
Test B rating (% disease control) [1, 5]: 0%
Test C rating (% disease control) (Septoria tritici; [5]): 43%
Test D rating (% disease control) [2, 5]: 0%
Test E rating (% disease control) [3, 5]: 0%

Cn1nc(C(F)F)c(C(=O)N(Cc2ccc(-n3cc(Br)cn3)cc2Cl)C2CC2)c1F [compound 34]
Test A rating (% disease control) (Botrytis cinerea; [5]): 23%
Test B rating (% disease control) [1, 5]: 100%
Test C rating (% disease control) (Septoria tritici; [5]): 94%
Test D rating (% disease control) [2, 5]: 100%
Test E rating (% disease control) [3, 5]: 95%

COc1ccc(-n2ccc(C(F)(F)F)n2)cc1CN(C(=O)c1cn(C)nc1C(F)F)C1CC1 [compound 14]
Test A rating (% disease control) (Botrytis cinerea; [5]): 0%
Test B rating (% disease control) [1, 5]: 42%
Test C rating (% disease control) (Septoria tritici; [5]): 83%
Test D rating (% disease control) [2, 5]: 32%
Test E rating (% disease control) [3, 5]: 92%

Cn1cc(C(=O)N(Cc2cc(-n3ccc(C(F)(F)F)n3)ccc2Cl)C2CC2)c(C(F)F)n1 [compound 30]
Test A rating (% disease control) (Botrytis cinerea; [5]): 0%
Test B rating (% disease control) [1, 5]: 60%
Test C rating (% disease control) (Septoria tritici; [5]): 87%
Test D rating (% disease control) [2, 5]: 31%
Test E rating (% disease control) [3, 5]: 64%
